From patent US11168347B2, “Digital quantification of DNA replication and/or chromosome segregation based determination of antimicrobial susceptibility” (CALIFORNIA INSTITUTE OF TECHNOLOGY, priority 2016, dated 2021) come the findings set out here.

The subject of this assay is E. coli strain isolated from a patient with a urinary tract infection. The experiment in a line: microbe, parasite or virus in culture. Conditions: Escherichia coli, read-out: minimum inhibitory concentration.

The structures appear in SMILES notation. Converted amounts (≈) assume the structure as drawn.

In the case of `O=C1CN(/N=C/c2ccc([N+](=O)[O-])o2)C(=O)N1` [nit, Nitrofurantoin], the MIC is 64 µg/mL (≈ 269 µM).
